# Assay results as given in paper PMC7767381, “Exploring the Anti-Cancer Mechanism of Novel 3,4′-Substituted Diaryl Guanidinium Derivatives” (Pharmaceuticals, 2020).
# Tests used:
# HL-60 cells = test: alamarBlue cell viability assay, HL-60; type: cell-based; details: Homo sapiens, HL-60, 72 h, alamarBlue, 72 h; read-out: HL-60 IC50 ± SEM
# Excerpt: Cell viability and proliferation assays were used to evaluate the in vitro cytotoxicity of all synthesised compounds in a variety of different cancer cell lines using the alamarBlue® viability assay and the results are presented in Table 1 and Table 2. The sensitivity of cancer cells to drugs can often be compromised by PIK3CA, Ras and BRAF mutations. To determine whether such mutations are critical to the efficacy of our new compounds we tested them in a range of cancerous cell lines expressing different mutations. Firstly, we used the HL-60 (human promyelocytic leukaemia, NRas mutated) cell line for general cytotoxicity screening of all compounds. […] Lastly, toxicity against MCF-10A, which is a non-tumorigenic epithelial cell line, was also assessed for one of the most promising compounds (4). The graphs representing the viability results with the HL-60, MCF-7, HeLa, HCT-116, and HKH-2 cancer cell lines for compound 1 and derivatives 2, 3, and 4 are shown in Figures S7–S10 (ESI).
# (§1) Cells were counted and seeded in 96-well plates at a density of 2 × 10^5 cells/mL for HL-60, 2.5 × 10^4 cells/mL for MCF-7, MCF10A and HeLa, 1 × 10^5 cells/mL for HCT116 and HKH-2, all of them in their respective media. The 96-well plates were then treated with a 1:100 dilution of stock concentrations of drugs or EtOH (1% v/v)/DMSO (0.1% v/v) as vehicle control in triplicate. Three blank wells containing 200 µL RPMI with no cells were also set-up as blanks. After a 72 h incubation, 20 µL of alamarBlue was added to each well. The plates were incubated in darkness at 37 °C for 4–5 h using a Molecular Devices microplate reader, the fluorescence (F) was then read at an excitation wavelength of 544 nm and an emission wavelength of 590 nm. Cell viability was then determined by subtracting the mean blank fluorescence (Fb) from the treated sample fluorescence (Fs) and expressing this as a percentage of the fluorescence of the blanked vehicle control (Fc). […] The results were then plotted as a nonlinear regression, sigmoidal dose-response curves on Prism, from which the IC50 value for each drug was determined. […]
# Pharmacy, TCD. It was maintained in Roswell Park Memorial Institute (RPMI) 1640 medium with stable glutamate (GlutaMax I) supplemented with 10% (v/v) fetal bovine serum (FBS), 1% (v/v) penicillin/ streptomycin (pen-strep) and 2 mM L-glutamine. […]
# 4.4. AlamarBlue ® Cell Viability Assay
# Cells were counted and seeded in 96 well plates at a density of 2 × 10^5 cells/mL for HL-60, 2.5× 10^4 cells/mL for MCF-7, MCF10A and HeLa, 1 × 10^5 cells/mL for HCT116 and HKH-2, all of them in their respective media. The 96 well plates were then treated with a 1:100 dilution of stock concentrations of drugs or EtOH (1% v/v)/DMSO (0.1% v/v) as vehicle control in triplicate.
# Three blank wells containing 200 µL media with no cells were also set-up as blanks. After a 72 h incubation, 20 µL of AlamarBlue was added to each well. The plates were incubated in darkness at 37 °C for 4-5 h. Using a Molecular Devices microplate reader, the fluorescence (F) was then read at an excitation wavelength of 544 nm and an emission wavelength of 590 nm.
# Cell viability was then determined by subtracting the mean blank fluorescence (Fb) from the treated sample fluorescence (Fs) and expressing this as a percentage of the fluorescence of the blanked vehicle control (Fc). […] The results were […]
# then plotted as a nonlinear regression, sigmoidal dose-response curves on Prism, from which the IC50 value for each drug was determined.
# Fs − Fb x 100 = % Cell Viability
# 60 cell line in a dose-dependent manner.
# (1 picture or pasted object on this page, not shown here)
# MCF10A cells = test: alamarBlue toxicity in non-tumorigenic MCF10A cells; type: cell-based, human
# Excerpt: Considering the promising cytotoxicity results obtained with the cancer cell lines, we also evaluated the potential toxicity of the most efficient derivative (compound 4) in the non-cancerous cell line MCF10A (human mammary epithelial cell line).
# as §1, with “After a 72 h incubation, 20 µL of alamarBlue was added to each well.” left out
# Figure S11. Scatter correlation found between the calculated logP and the HL -60 cytotoxic […]
Structure (SMILES),IC50 (HL-60 cells),toxicity towards MCF10A (MCF10A cells; 100 μM),effect on MCF10A cell viability (MCF10A cells; 10 and 1 μM)
"Cl.Cl.N=C(N)Nc1ccc(Oc2cccc(NC(=N)Nc3ccc(Cl)c(C(F)(F)F)c3)c2)cn1 [Compound 2, 1-(4-Chloro-3-(trifluoromethyl)phenyl)-3-(3-((6-guanidinopyridin-3-yl)oxy)phenyl) guanidine dihydrochloride]",2360 ± 140 nM,,
"Cl.N=C(N)Nc1ccc(Oc2cccc(Nc3ccc(Cl)c(C(F)(F)F)c3)c2)cn1 [Compound 4, 1-(5-(3-((4-Chloro-3-(trifluoromethyl)phenyl)amino)phenoxy)pyridin-2-yl)guanidine hydrochloride]",3480 ± 280 nM,shows toxicity,does not appear to affect in any way cell viability
